Test results reported in publication PMC10712727, “Safety, Tolerability, and Pharmacokinetics of Senaparib, a Novel PARP1/2 Inhibitor, in Chinese Patients With Advanced Solid Tumors: A Phase I Trial” (The Oncologist, 2023).

Test: Plasma pharmacokinetics in continuous dosing period, cycle 1 day 15 steady state (HPLC-MS/MS)
Assay type: in vivo, human
Settings: for Rac, accumulation ratio (mean±SD) / Vss/F (mean±SD): cycle 1 day 15
Description: Dose escalation was conducted using a modified Fibonacci 3 + 3 method (Supplementary Fig. […] At a given dose level, each patient received a single dose of senaparib followed by a 7-day washout period. They then entered a continuous dosing period to confirm the safety and PK profile, in which they received senaparib QD from day 1 to day 21 of each 3-week cycle. Progression to the next higher dose required approval from the Data Safety Monitoring Committee (DSMC) upon review of the safety and PK data of the previous dose. A 50-mg twice-daily (BID) dosing group was added (planned enrollment, n = 6 patients) based on a DSMC review of the safety, PK, and efficacy analysis of the completed QD dose groups in the phase I clinical trial of senaparib dose escalation in Australia (NCT03507543), which commenced prior to the start of this trial. Safety was assessed by recording the incidence of dose-limiting toxicities (DLTs), and the incidence, nature, severity (graded per National Cancer Institute Common Terminology Criteria for Adverse Events version 4.03 [NCI CTCAE v4.03][18]), and relatedness of treatment-emergent adverse events (TEAEs). DLTs were predefined toxicities (Supplementary Table S2) recorded over the 7 days following the single-dose administration of senaparib and during the first treatment cycle (day 1-day 21) for each dose group in the dose-escalation period only. […] Senaparib PK parameters were derived from blood samples collected from patients after the single administration, and at regular intervals during the first cycle of the dose-escalation and dose-expansion periods. Plasma concentrations of senaparib were determined using high-performance liquid chromatography-tandem mass spectrometry. […] There was no formal sample size calculation based on statistical hypothesis testing for this study; the planned enrolment was approximately 30-60 patients across the dose-escalation and dose-expansion cohorts. The actual number in the dose-escalation cohort was adjusted based on the number of dose cohorts required for the modified Fibonacci dose-escalation design and the determined MTD. Definitions for all analysis populations (safety, DLT, PK, and efficacy [intent-to-treat, ITT]) are provided in Supplementary Table S2. No statistical tests were performed; patient demographic and baseline characteristics, safety/tolerability, PK parameters, and efficacy were evaluated descriptively. ORR and DCR and their 95% CIs were calculated for each group using the exact probability method. Kaplan-Meier statistics were used to estimate DOR and PFS, and their 95% CIs for each dose group separately. Dose linearity was explored based on the single-dose data of area under the time-concentration curve (AUC) and maximum plasma concentration (Cmax) using the power model (Y = α × dose β) for the dose range 2-80 mg on a log-transformed scale. The following criterion was used to determine whether dose proportionality was met: if the (2-sided) 90% CI for β was wholly contained within the interval (1 + log(0.5)/log(r), 1 + log(2)/log(r)), then dose proportionality was supported. Here, r was defined as the ratio of the highest to lowest dose. All data analyses were carried out using SAS EG7.1 or higher or (for PK parameters) WinNonlin 7.0 or higher.

O=C(c1cc(Cn2c(=O)[nH]c(=O)c3c(F)cccc32)ccc1F)N1CCN(c2ncccn2)CC1 [Senaparib]
Rac, accumulation ratio (mean±SD) (2 mg QD (n/N = 1/1)): 1.5 | Vss/F (mean±SD) (2 mg QD (n/N = 1/1)): 16.6 L | Rac, accumulation ratio (mean±SD) (5 mg QD (n/N = 3/3)): 1.4±0.4 | Vss/F (mean±SD) (5 mg QD (n/N = 3/3)): 19.8 ± 7.7 L | Rac, accumulation ratio (mean±SD) (10 mg QD (n/N = 3/3)): 1.4±0.2 | Vss/F (mean±SD) (10 mg QD (n/N = 3/3)): 24.9 ± 4.3 L | Rac, accumulation ratio (mean±SD) (20 mg QD (n/N = 5/5)): 1.2±0.2 | Vss/F (mean±SD) (20 mg QD (n/N = 5/5)): 18.1 ± 2.5 L | Rac, accumulation ratio (mean±SD) (40 mg QD (n/N = 3/3)): 1.1±0.1 | Rac, accumulation ratio (mean±SD) (50 mg BID (n/N = 4/4)): 1.8±0.4 | Vss/F (mean±SD) (50 mg BID (n/N = 4/4)): 39.9 ± 3.4 L | Rac, accumulation ratio (mean±SD) (60 mg QD (n/N = 5/5)): 1.1±0.0 | Vss/F (mean±SD) (60 mg QD (n/N = 5/5)): 32.1 ± 13.0 L | Rac, accumulation ratio (mean±SD) (80 mg QD (n/N = 9/9)): 1.2±0.1 | Vss/F (mean±SD) (80 mg QD (n/N = 9/9)): 38.8 ± 23.5 L | Rac, accumulation ratio (mean±SD) (100 mg QD (n/N = 20/20)): 1.2±0.1 | Vss/F (mean±SD) (100 mg QD (n/N = 20/20)): 40.1 ± 21.9 L | Rac, accumulation ratio (mean±SD) (120 mg QD (n/N = 4/4)): 1.2±0.2 | Vss/F (mean±SD) (120 mg QD (n/N = 4/4)): 1.3 ± 39.5 L | Accumulation ratio (Rac) (after BID administration): 1.8 | Accumulation ratio (mean Rac) (after repeated QD administration): 1.1-1.5 | AUC from time zero to 24 h post dose (human, in vivo): approximately 35 918 h*ng/mL | AUC from time zero to the last measurable concentration (human, in vivo): 33 827 h*ng/mL | AUC0-inf, mean±SD (human, in vivo, 2 mg): 4361.8 ng·h/mL | AUC0-t, mean±SD (human, in vivo, 2 mg): 2753.5 ng·h/mL | CLss/F (mean±SD) (human, in vivo, 2 mg): 0.7 L/h | Cmax, mean±SD (human, in vivo, 2 mg): 203.0 ng/mL | Tmax, median (range) (human, in vivo, 2 mg): 2.0 (2.0-2.0) h | t½, median (range) (human, in vivo, 2 mg): 16.0 (16.0-16.0) h | AUC0-inf, mean±SD (human, in vivo, 5 mg): 9655.4±11 022.2 h*ng/mL | AUC0-t, mean±SD (human, in vivo, 5 mg): 6013.7 ± 5649.0 ng·h/mL | CLss/F (mean±SD) (human, in vivo, 5 mg): 1.6 ± 1.3 L/h | Cmax, mean±SD (human, in vivo, 5 mg): 470.7 ± 354.0 ng/mL | Tmax, median (range) (human, in vivo, 5 mg): 2.0 (2.0-2.0) h | t½, median (range) (human, in vivo, 5 mg): 10.3 (6.4-21.4) h | AUC0-inf, mean±SD (human, in vivo, 10 mg): 10 553.4±2657.5 h*ng/mL | AUC0-t, mean±SD (human, in vivo, 10 mg): 7506.4 ± 892.6 ng·h/mL | CLss/F (mean±SD) (human, in vivo, 10 mg): 1.3 ± 0.2 L/h | Cmax, mean±SD (human, in vivo, 10 mg): 598.7 ± 67.9 ng/mL | Tmax, median (range) (human, in vivo, 10 mg): 4.0 (2.0-4.0) h | t½, median (range) (human, in vivo, 10 mg): 13.2 (9.4-16.8) h | AUC0-inf, mean±SD (human, in vivo, 20 mg): 22 122.4±18 526.0 h*ng/mL | AUC0-t, mean±SD (human, in vivo, 20 mg): 16 213.5±9863.9 h*ng/mL | CLss/F (mean±SD) (human, in vivo, 20 mg): 1.6 ± 0.8 L/h | Cmax, mean±SD (human, in vivo, 20 mg): 1483.2 ± 487.8 ng/mL | Tmax, median (range) (human, in vivo, 20 mg): 2.0 (1.8-2.0) h | t½, median (range) (human, in vivo, 20 mg): 9.4 (5.5-17.5) h | AUC0-inf, mean±SD (human, in vivo, 40 mg): 22 437.1±5342.9 h*ng/mL | AUC0-t, mean±SD (human, in vivo, 40 mg): 19 566.5±3285.1 h*ng/mL | CLss/F (mean±SD) (human, in vivo, 40 mg): 2.1 ± 0.4 L/h | Cmax, mean±SD (human, in vivo, 40 mg): 2013.3 ± 280.2 ng/mL | Tmax, median (range) (human, in vivo, 40 mg): 1.9 (1.8-2.0) h | t½, median (range) (human, in vivo, 40 mg): 7.5 (5.5-9.2) h | AUC0-inf, mean±SD (human, in vivo, 50 mg): 38 418.9±19 776.1 h*ng/mL | AUC0-t, mean±SD (human, in vivo, 50 mg): 17 959.6±5287.0 h*ng/mL | CLss/F (mean±SD) (human, in vivo, 50 mg): 2.8 ± 0.8 L/h | Cmax, mean±SD (human, in vivo, 50 mg): 2152.5 ± 354.3 ng/mL | Tmax, median (range) (human, in vivo, 50 mg): 2.0 (1.9-3.7) h | t½, median (range) (human, in vivo, 50 mg): 9.7 (7.8-15.2) h | AUC0-inf, mean±SD (human, in vivo, 60 mg): 19 189.5±10 074.3 h*ng/mL | AUC0-t, mean±SD (human, in vivo, 60 mg): 17 777.2±8739.1 h*ng/mL | CLss/F (mean±SD) (human, in vivo, 60 mg): 4.6 ± 3.6 L/h | Cmax, mean±SD (human, in vivo, 60 mg): 2056.0 ± 975.0 ng/mL | Tmax, median (range) (human, in vivo, 60 mg): 2.0 (1.9-3.9) h | t½, median (range) (human, in vivo, 60 mg): 5.8 (3.4-7.7) h | AUC0-inf, mean±SD (human, in vivo, 80 mg): 48 747.0±33 189.7 h*ng/mL | AUC0-t, mean±SD (human, in vivo, 80 mg): 37 727.0±21 476.1 h*ng/mL | CLss/F (mean±SD) (human, in vivo, 80 mg): 2.9 ± 1.8 L/h | Cmax, mean±SD (human, in vivo, 80 mg): 3487.8 ± 1649.2 ng/mL | Tmax, median (range) (human, in vivo, 80 mg): 2.0 (1.9-3.8) h | t½, median (range) (human, in vivo, 80 mg): 9.7 (5.8-14.4) h | AUC0-inf, mean±SD (human, in vivo, 100 mg): 40 080.4±16 731.2 h*ng/mL | AUC0-t, mean±SD (human, in vivo, 100 mg): 33 827.1±12 273.6 h*ng/mL | CLss/F (mean±SD) (human, in vivo, 100 mg): 3.5 ± 1.8 L/h | Cmax, mean±SD (human, in vivo, 100 mg): 3212.5 ± 765.1 ng/mL | Tmax, median (range) (human, in vivo, 100 mg): 1.9 (1.8-4.1) h | t½, median (range) (human, in vivo, 100 mg): 7.5 (5.3-16.1) h | AUC0-inf, mean±SD (human, in vivo, 120 mg): 87 799.1±11 6874.0 h*ng/mL | AUC0-t, mean±SD (human, in vivo, 120 mg): 62 737.2±74517.1 h*ng/mL | CLss/F (mean±SD) (human, in vivo, 120 mg): 4.3 ± 3.3 L/h | Cmax, mean±SD (human, in vivo, 120 mg): 5107.5 ± 4893.2 ng/mL | Tmax, median (range) (human, in vivo, 120 mg): 2.0 (1.9-2.1) h | t½, median (range) (human, in vivo, 120 mg): 8.8 (6.0-15.2) h
